This data set concerns CCRIS mutagenicity, Ames/micronucleus/aberration tests. The experiment in a line: CCRIS mutagenicity studies.
The mark [1] stands for this setting: Test System: AMES SALMONELLA TYPHIMURIUM, Strain/Indicator: TA100, Metabolic Activation: NONE, Method: STANDARD PLATE.
Where [2] appears, read: Test System: AMES SALMONELLA TYPHIMURIUM, Strain/Indicator: TA100, Metabolic Activation: RAT, LIVER, S-9, AROCLOR 1254, Method: STANDARD PLATE.

The source made the active and inactive calls. How the calls were made is not given here.

These results are taken from PubChem BioAssay AID1259407 (Chemical Carcinogenesis Research Information System (CCRIS), 2018).

Consider `CC(=O)Nc1cccc2c1-c1ccccc1C2`, for which the mutagenic call was “inactive; negative” (Test System: AMES SALMONELLA TYPHIMURIUM, Strain/Indicator: TA98, Metabolic Activation: HUMAN, RED BLOOD CELL, CYTOSOL, Method: PREINCUBATION); “inactive; negative” (Test System: AMES SALMONELLA TYPHIMURIUM, Strain/Indicator: TA1538, Metabolic Activation: RAT, LIVER, CYTOSOL, 4-ACETYLAMINOFLUORENE, Method: STANDARD PLATE); “active; positive” (Test System: AMES SALMONELLA TYPHIMURIUM, Strain/Indicator: TA1538, Metabolic Activation: RAT, LIVER, CYTOSOL, AROCLOR 1254, Method: STANDARD PLATE); “inactive; negative” (Test System: AMES SALMONELLA TYPHIMURIUM, Strain/Indicator: TA1538, Metabolic Activation: RAT, LIVER, CYTOSOL, Method: STANDARD PLATE); “active; positive” (Test System: AMES SALMONELLA TYPHIMURIUM, Strain/Indicator: TA1538, Metabolic Activation: RAT, LIVER, MICROSOMES, 4-ACETYLAMINOFLUORENE, Method: STANDARD PLATE); “active; positive” (Test System: AMES SALMONELLA TYPHIMURIUM, Strain/Indicator: TA1538, Metabolic Activation: RAT, LIVER, MICROSOMES, AROCLOR 1254, Method: STANDARD PLATE). Further, the mutagenic call is, setting by setting: (Test System: AMES SALMONELLA TYPHIMURIUM, Strain/Indicator: TA1538, Metabolic Activation: RAT, LIVER, MICROSOMES, Method: STANDARD PLATE) “inactive; negative”; (Test System: AMES SALMONELLA TYPHIMURIUM, Strain/Indicator: TA1538, Metabolic Activation: RAT, LIVER, S-9, PHENOBARBITAL, Method: STANDARD PLATE) “active; positive”; (Test System: E. COLI, Strain/Indicator: WP2 UVRA, Metabolic Activation: HAMSTER, LIVER, S-9, AROCLOR 1254, Method: STANDARD PLATE) “inactive; negative”; (Test System: E. COLI, Strain/Indicator: WP2 UVRA, Metabolic Activation: HAMSTER, LIVER, S-9, Method: STANDARD PLATE) “inactive; negative”; (Test System: E. COLI, Strain/Indicator: WP2 UVRA, Metabolic Activation: MOUSE, LIVER, S-9, AROCLOR 1254, Method: STANDARD PLATE) “inactive; negative”; (Test System: E. COLI, Strain/Indicator: WP2 UVRA, Metabolic Activation: MOUSE, LIVER, S-9, Method: STANDARD PLATE) “inactive; negative”. Further, the mutagenic call by setting is: (Test System: E. COLI, Strain/Indicator: WP2 UVRA, Metabolic Activation: NONE, Method: STANDARD PLATE) “inactive; negative”; (Test System: E. COLI, Strain/Indicator: WP2 UVRA, Metabolic Activation: RAT, LIVER, S-9, AROCLOR 1254, Method: STANDARD PLATE) “inactive; negative”; (Test System: E. COLI, Strain/Indicator: WP2 UVRA, Metabolic Activation: RAT, LIVER, S-9, Method: STANDARD PLATE) “inactive; negative”; (Test System: MOUSE LYMPHOMA, Strain/Indicator: L5178Y (TK+/TK-), Metabolic Activation: NONE, Method: SUSPENSION/PLATE) “inactive; negative”; (Test System: UDS, Strain/Indicator: HEPG2/THYMIDINE INCORPORATION, Metabolic Activation: NONE, Method: AUTORADIOGRAPHY) “inactive; negative”.
Take `Cc1cc(O)cc2oc(=O)c3c(O)cc(O)cc3c12`: the mutagenic call reads like this: (Test System: AMES SALMONELLA TYPHIMURIUM, Strain/Indicator: TA98, Metabolic Activation: NONE, Method: STANDARD PLATE) “inactive; negative”; (Test System: AMES SALMONELLA TYPHIMURIUM, Strain/Indicator: TA98, Metabolic Activation: RAT LIVER S-9, AROCLOR 1254, Method: STANDARD PLATE) “inactive; negative”; (Test System: AMES SALMONELLA TYPHIMURIUM, Strain/Indicator: TA98, Metabolic Activation: RAT, LIVER, S-9, AROCLOR 1254, Method: STANDARD PLATE) “inactive; negative”; under setting [1], “inactive; negative”; (Test System: AMES SALMONELLA TYPHIMURIUM, Strain/Indicator: TA100, Metabolic Activation: RAT LIVER S-9, AROCLOR 1254, Method: STANDARD PLATE) “inactive; negative”; under setting [2], “inactive; negative”. Moreover, the mutagenic call (Test System: Ames Salmonella typhimurium, Strain/Indicator: TA97, Metabolic Activation: None, Method: Standard plate) is “inactive; negative. nitrosation did not increase mutagenic activity”; the mutagenic call (Test System: Ames Salmonella typhimurium, Strain/Indicator: TA97, Metabolic Activation: Rat, Liver, S-9, Aroclor 1254 (10%), Method: Standard plate) was “inactive; negative. nitrosation did not increase mutagenic activity”; the mutagenic call (Test System: Ames Salmonella typhimurium, Strain/Indicator: TA102, Metabolic Activation: None, Method: Standard plate) was “active; positive. nitrosation led to mutagenic product”; the mutagenic call (Test System: Ames Salmonella typhimurium, Strain/Indicator: TA102, Metabolic Activation: Rat, Liver, S-9, Aroclor 1254 (10%), Method: Standard plate) was “active; positive. nitrosation led to mutagenic product”; the mutagenic call (Test System: Ames Salmonella typhimurium, Strain/Indicator: TA104, Metabolic Activation: None, Method: Standard plate) is “inactive; negative. nitrosation did not increase mutagenic activity”; the mutagenic call (Test System: Ames Salmonella typhimurium, Strain/Indicator: TA104, Metabolic Activation: Rat, Liver, S-9, Aroclor 1254 (10%), Method: Standard plate) was “inactive; negative. nitrosation did not increase mutagenic activity”.
Regarding `CC1(c2ccc(Cl)cc2)CO1` (configuration not stated), under “Test System: AMES SALMONELLA TYPHIMURIUM, Strain/Indicator: TA100, Metabolic Activation: NONE, Method: PREINCUBATION”, the mutagenic call is “active; positive”.
In the case of `O=[N+]([O-])c1cnc(CO)n1CCO`, the mutagenic call runs as follows: under setting [1], “active; positive”; under setting [2], “active; positive”.
